Consider twelve compounds from ChEMBL document CHEMBL3046907, “Microwave-assisted synthesis of pyrido[1,2-a]benzimidazole derivatives of -aryloxyquinoline and their antimicrobial and antituberculosis activities” (2013).

Common to all, as to type: functional
One assay concerns Streptococcus pneumoniae. The assay is described as follows: Antibacterial activity against Streptococcus pneumoniae MTCC 1936 after overnight incubation by broth microdilution method. A general note: In broth dilution the organism is exposed to a series of concentrations in liquid medium.
For a further assay, the system named is Clostridium tetani. The assay is described as follows: Antibacterial activity against Clostridium tetani MTCC 449 after overnight incubation by broth microdilution method.
In a further assay the test system is Aspergillus fumigatus. The assay can be described thus: Antifungal activity against Aspergillus fumigatus MTCC 3008 after overnight incubation by broth microdilution method.
The subject of a further assay is Vibrio cholerae. The assay is described as follows: Antibacterial activity against Vibrio cholerae MTCC 3906 after overnight incubation by broth microdilution method.
Assay [1] concerns Mycobacterium tuberculosis. The assay can be described thus: Growth inhibition of Mycobacterium tuberculosis H37Rv at 6.25 ug/ml after 28 days by Lowenstein-Jensen method. The note with it: 672 h, read-out: GI.
A further assay relates to Salmonella typhi. The assay is described as follows: Antibacterial activity against Salmonella enterica subsp. enterica serovar Typhi MTCC 98 after overnight incubation by broth microdilution method.
In another assay the test system is Escherichia coli. The assay is described as follows: Antibacterial activity against Escherichia coli MTCC 443 after overnight incubation by broth microdilution method.
The test system of the next assay is Candida albicans. The assay can be described thus: Antifungal activity against Candida albicans MTCC 227 after overnight incubation by broth microdilution method.
Another assay concerns Bacillus subtilis. The assay can be described thus: Antibacterial activity against Bacillus subtilis MTCC 441 after overnight incubation by broth microdilution method.

In brackets after ≈: the same amount, converted by molar mass. Some results are limits rather than exact numbers.

Consider `COc1ccc2nc(Oc3ccccc3)c(-c3c(C#N)c(N)n4c(nc5cc(C)ccc54)c3C#N)cc2c1`, for which the MIC99 – broadly, the lowest concentration that inhibits either 99% of growth or 99% of the strains tested, depending on the study – was 250 µg/mL (≈ 503 µM) with Streptococcus pneumoniae; 250 µg/mL (≈ 503 µM) against Clostridium tetani; 500 µg/mL (≈ 1010 µM) in the assay with Aspergillus fumigatus; 250 µg/mL (≈ 503 µM) in the assay with Vibrio cholerae; 100 µg/mL (≈ 201 µM) in the assay on Salmonella typhi; 62.5 µg/mL (≈ 126 µM) in the assay on Escherichia coli. Also, the figures for the MIC99 against Candida albicans and in the assay with Bacillus subtilis were 1000 µg/mL (≈ 2010 µM) and 250 µg/mL (≈ 503 µM), respectively. For the same compound, the inhibition of growth at 6.25 µg/mL in assay [1] turned out to be 78%.
As to `COc1ccc(Oc2nc3ccc(OC)cc3cc2-c2c(C#N)c(N)n3c(nc4ccccc43)c2C#N)cc1`, the MIC99 in the assay with Streptococcus pneumoniae is 500 µg/mL (≈ 976 µM); with Clostridium tetani, 200 µg/mL (≈ 390 µM); in the assay with Aspergillus fumigatus, 250 µg/mL (≈ 488 µM); with Vibrio cholerae, 125 µg/mL (≈ 244 µM); against Salmonella typhi, 200 µg/mL (≈ 390 µM); against Escherichia coli, 125 µg/mL (≈ 244 µM). In addition, the figures for the MIC99 against Candida albicans and with Bacillus subtilis were above 1000 µg/mL and 250 µg/mL (≈ 488 µM), respectively. In addition, in [1], the inhibition of growth at 6.25 µg/mL was determined as 79%.
As for `COc1ccc(Oc2nc3ccccc3cc2-c2c(C#N)c(N)n3c(nc4cc(C)ccc43)c2C#N)cc1`, the MIC99 against Streptococcus pneumoniae amounted to 250 µg/mL (≈ 503 µM); against Clostridium tetani, 200 µg/mL (≈ 403 µM); against Aspergillus fumigatus, 1000 µg/mL (≈ 2010 µM); with Vibrio cholerae, 250 µg/mL (≈ 503 µM); against Salmonella typhi, 125 µg/mL (≈ 252 µM); with Escherichia coli, 100 µg/mL (≈ 201 µM). Further, the values for the MIC99 against Candida albicans and against Bacillus subtilis were 200 µg/mL (≈ 403 µM) and 250 µg/mL (≈ 503 µM), respectively. Further, the inhibition of growth at 6.25 µg/mL in assay [1] was found to be 64%.
Regarding `Cc1ccc(Oc2nc3ccccc3cc2-c2c(C#N)c(N)n3c(nc4ccccc43)c2C#N)cc1`, the MIC99 against Streptococcus pneumoniae worked out at 125 µg/mL (≈ 268 µM); with Clostridium tetani it was 250 µg/mL (≈ 536 µM); with Aspergillus fumigatus it was 250 µg/mL (≈ 536 µM); against Vibrio cholerae, 100 µg/mL (≈ 214 µM); with Salmonella typhi, 100 µg/mL (≈ 214 µM); against Escherichia coli it was 100 µg/mL (≈ 214 µM). For the same compound, the MIC99 with Candida albicans is above 1000 µg/mL; against Bacillus subtilis, 250 µg/mL (≈ 536 µM). Also, in assay [1], the inhibition of growth at 6.25 µg/mL turned out to be 52%.
Turning to `COc1ccc(Oc2nc3ccccc3cc2-c2c(C#N)c(N)n3c(nc4ccccc43)c2C#N)cc1`, the MIC99 against Streptococcus pneumoniae worked out at 200 µg/mL (≈ 415 µM); against Clostridium tetani, 250 µg/mL (≈ 518 µM); in the assay with Aspergillus fumigatus, 500 µg/mL (≈ 1040 µM); with Vibrio cholerae, 125 µg/mL (≈ 259 µM); against Salmonella typhi it was 200 µg/mL (≈ 415 µM); against Escherichia coli it was 125 µg/mL (≈ 259 µM). The MIC99 against Candida albicans and against Bacillus subtilis was 250 µg/mL (≈ 518 µM) throughout. The inhibition of growth at 6.25 µg/mL in assay [1] amounted to 24%.
On to `Cc1ccc2nc(Oc3ccccc3)c(-c3c(C#N)c(N)n4c(nc5ccccc54)c3C#N)cc2c1`, for which the MIC99 came to 200 µg/mL (≈ 429 µM) with Streptococcus pneumoniae; 250 µg/mL (≈ 536 µM) in the assay with Clostridium tetani; 1000 µg/mL (≈ 2140 µM) with Aspergillus fumigatus; 200 µg/mL (≈ 429 µM) with Vibrio cholerae; 100 µg/mL (≈ 214 µM) in the assay on Salmonella typhi; 62.5 µg/mL (≈ 134 µM) against Escherichia coli. Moreover, the MIC99 in the assay with Candida albicans was 250 µg/mL (≈ 536 µM); against Bacillus subtilis, 200 µg/mL (≈ 429 µM). The inhibition of growth at 6.25 µg/mL in [1] turned out to be 19%.
As for `Cc1ccc2nc(Oc3ccccc3)c(-c3c(C#N)c(N)n4c(nc5cc(C)ccc54)c3C#N)cc2c1`, the MIC99 is 100 µg/mL (≈ 208 µM) against Streptococcus pneumoniae; 250 µg/mL (≈ 520 µM) in the assay on Clostridium tetani; above 1000 µg/mL with Aspergillus fumigatus; 200 µg/mL (≈ 416 µM) against Vibrio cholerae; 250 µg/mL (≈ 520 µM) in the assay with Salmonella typhi; 250 µg/mL (≈ 520 µM) in the assay with Escherichia coli. Besides, the MIC99 against Candida albicans and against Bacillus subtilis was 500 µg/mL (≈ 1040 µM) each time. Moreover, the inhibition of growth at 6.25 µg/mL in assay [1] was 71%.
As to `COc1ccc2nc(Oc3ccc(C)cc3)c(-c3c(C#N)c(N)n4c(nc5cc(C)ccc54)c3C#N)cc2c1`, the MIC99 in the assay on Streptococcus pneumoniae is 100 µg/mL (≈ 196 µM); in the assay with Clostridium tetani it was 200 µg/mL (≈ 392 µM); in the assay on Aspergillus fumigatus, above 1000 µg/mL; in the assay on Vibrio cholerae, 125 µg/mL (≈ 245 µM); against Salmonella typhi it was 100 µg/mL (≈ 196 µM); in the assay on Escherichia coli, 200 µg/mL (≈ 392 µM). Moreover, the MIC99 in the assay with Candida albicans was found to be 1000 µg/mL (≈ 1960 µM); with Bacillus subtilis, 125 µg/mL (≈ 245 µM). For the same compound, the inhibition of growth at 6.25 µg/mL in assay [1] is 10%.
As for `COc1ccc(Oc2nc3ccc(OC)cc3cc2-c2c(C#N)c(N)n3c(nc4cc(C)ccc43)c2C#N)cc1`, the MIC99 is 200 µg/mL (≈ 380 µM) against Streptococcus pneumoniae; 200 µg/mL (≈ 380 µM) with Clostridium tetani; above 1000 µg/mL with Aspergillus fumigatus; 125 µg/mL (≈ 237 µM) with Vibrio cholerae; 250 µg/mL (≈ 475 µM) against Salmonella typhi; 200 µg/mL (≈ 380 µM) against Escherichia coli. For the same compound, the MIC99 with Candida albicans was 500 µg/mL (≈ 950 µM); in the assay with Bacillus subtilis, 100 µg/mL (≈ 190 µM). For the same compound, the inhibition of growth at 6.25 µg/mL in [1] worked out at 70%.
Consider `Cc1ccc(Oc2nc3ccc(C)cc3cc2-c2c(C#N)c(N)n3c(nc4ccccc43)c2C#N)cc1`, for which the MIC99 with Streptococcus pneumoniae was 250 µg/mL (≈ 520 µM); against Clostridium tetani, 500 µg/mL (≈ 1040 µM); with Aspergillus fumigatus it was above 1000 µg/mL; in the assay on Vibrio cholerae it was 100 µg/mL (≈ 208 µM); against Salmonella typhi it was 125 µg/mL (≈ 260 µM); in the assay on Escherichia coli, 100 µg/mL (≈ 208 µM). In addition, the MIC99 in the assay with Candida albicans was 1000 µg/mL (≈ 2080 µM); against Bacillus subtilis, 100 µg/mL (≈ 208 µM). The inhibition of growth at 6.25 µg/mL in assay [1] came out at 32%.
`N#Cc1c(-c2cc3ccccc3nc2Oc2ccc(F)cc2)c(C#N)c2nc3ccccc3n2c1N`: the MIC99 in the assay on Streptococcus pneumoniae was determined as 125 µg/mL (≈ 266 µM); in the assay with Clostridium tetani, 200 µg/mL (≈ 425 µM); against Aspergillus fumigatus, 500 µg/mL (≈ 1060 µM); with Vibrio cholerae it was 250 µg/mL (≈ 531 µM); in the assay with Salmonella typhi, 250 µg/mL (≈ 531 µM); in the assay on Escherichia coli, 200 µg/mL (≈ 425 µM). For the same compound, the MIC99 with Candida albicans amounted to 500 µg/mL (≈ 1060 µM); against Bacillus subtilis, 250 µg/mL (≈ 531 µM). Besides, in assay [1], the inhibition of growth at 6.25 µg/mL was found to be 75%.
Take `COc1ccc(Oc2nc3ccc(C)cc3cc2-c2c(C#N)c(N)n3c(nc4ccccc43)c2C#N)cc1`: the MIC99 was 100 µg/mL (≈ 201 µM) with Streptococcus pneumoniae; 500 µg/mL (≈ 1010 µM) in the assay on Clostridium tetani; above 1000 µg/mL in the assay with Aspergillus fumigatus; 200 µg/mL (≈ 403 µM) in the assay with Vibrio cholerae; 200 µg/mL (≈ 403 µM) against Salmonella typhi; 250 µg/mL (≈ 503 µM) in the assay with Escherichia coli. Also, the MIC99 was determined as 1000 µg/mL (≈ 2010 µM) against Candida albicans and 125 µg/mL (≈ 252 µM) against Bacillus subtilis. In addition, the inhibition of growth at 6.25 µg/mL in [1] stood at 62%.
